Data as given in PubChem BioAssay AID2060624 (Molecular Pharmacology Branch, DTP, NCI, 2025).

Test system: 217524-143-R1-J4-PDC spheroids with HUVEC/MSC, viability
Assay: Anticancer human tumor 217524-143-R1-J4-PDC patient-derived pancreatic carcinoma cell line growth inhibition [CLK]
Conditions: for IC50: curve of first compound; for viability, T/C: stronger effect = lower value
Text: A high-throughput screen of multi-cell type tumor spheroids was designed to identify active combinations of […] and targeted small molecules. Complex spheroids include a stromal component modeled by human endothelial cells (HUVEC) and fibroblasts modeled by human mesenchymal stem cells (MSCs). The concentration ranges selected for each drug and investigational agent were based upon clinically achievable concentrations if the clinical Cmax of the agent was known.
Compounds. The drugs and investigational agents: cirtuvivint (SM08502; NSC835563), CC-671 (NSC850746), vemurafenib (NSC761431), tapotoclax (NSC804041), sotorasib (NSC818433), adagrasib (NSC831453), MRTX-1133 (NSC836407), BAY2416964 (NSC825713), copanlisib (NSC816437), inavolisib (NSC800729), abemaciclib (NSC768073), osimertinib (NSC779217), entinostat (NSC756642), eltanexor (KPT-8602, NSC794443), venetoclax (NSC766270), ceralasertib (NSC777638), bortezomib (NSC756655), olaparib (NSC753686), talazoparib (NSC767125), alisertib (NSC759677), peposertib (NSC802822), gemcitabine (NSC613327), 5-fluorouracil (NSC19893), SN-38 (NSC673596), oxaliplatin (NSC266046), paclitaxel (NSC125973), and doxorubicin (NSC123127), were obtained from the National Cancer Institute (NCI) Developmental Therapeutics Program Chemical Repository. The FDA-approved anticancer drug set is available from the Developmental Therapeutics Program at https://dtp.cancer.gov/organization/dscb/obtaining/available plates.htm. […] The stock solutions were prepared in dimethyl sulfoxide (DMSO, Sigma-Aldrich, St. Louis, MO, cat. D2650), except for the platinum complexes which were prepared in saline (Quality Biological, Gaithersburg, MD, cat. 114-055-101), at 800-fold the tested concentration and stored at -70 degrees C prior to their use. All drugs and investigational agents were tested over a range starting from a high concentration at or near the clinical Cmax and decreasing in half-log increments. If the clinical Cmax for an agent had not been determined, the highest concentration tested was 10 microM.
Cell Culture. All cells were maintained in an incubator at 37 degrees C and 5% CO2 with 95% humidity. The PDC lines were cultured according to standard operating procedures established by the NCI PDMR. Briefly, all PDCs were thawed and cultured in Matrigel-coated flasks prepared with a working solution of 1X Ham's F-12 nutrient mix, without supplementation (Invitrogen, Waltham, MA, cat. 11765054), 100 U/mL penicillin-streptomycin (Invitrogen, cat. 15140122), and 2.5% Matrigel (Corning Inc., Corning, NY, cat. 354248) for the first three passages. The 947758-054-R-J2-PDC line was cultured in 6B/Colon 1A media, which includes advanced DMEM/F-12 (Thermo Fisher Scientific, cat. 12634028), 10 mM HEPES (Thermo Fisher Scientific, cat. 15630080), 1X GlutaMAX supplement (Thermo Fisher Scientific, cat. 35050061), 0.1 mg/mL primocin (InvivoGen, cat. ant-pm-2), 10% defined fetal bovine serum, heat inactivated (HyClone Laboratories Inc., cat. SH30070.03HI), 1.25 mM N-Acetyl-L-cysteine (Sigma-Aldrich, cat. A9165), 10 mM nicotinamide (Sigma-Aldrich, cat. N0636), 1X B-27 supplement (Thermo Fisher Scientific, cat. 17504044), 1X N-2 supplement (Thermo Fisher Scientific, cat. 17502048), and 10 microM Y-27632 dihydrochloride (Tocris Bioscience, cat. 1254). The 876862-298-R-J1-PDC was cultured in 6E media, which includes all 6B/Colon 1A media components plus 50% L-WRN conditioned media (ATCC, cat. CRL-3276), 50 ng/mL recombinant human EGF recombinant protein (hEGF; Thermo Fisher Scientific, cat. PHG0311), 10 ng/mL recombinant human fibroblast growth factor 10 (hGFG-10; PeproTech, cat. 100-26), 1 ng/mL recombinant human fibroblast growth factor 2 (hFGF-2; PeproTech, cat. 100-18B), and 1 µM prostaglandin E2 (PGE2; Tocris, cat. 2296). The 227483-062-R1-J1-PDC line was cultured in Panc media, containing all 6E components except hFGF-2, with the addition of 500 nM SB-431542 (Selleckchem, cat. S1067) and 10 nM gastrin (Tocris, cat. 3006). […]

[1] = second compound 0.0316 µM, first compound 0.0316 µM
[2] = second compound 0.0316 µM, first compound 0.1 µM
[3] = second compound 0.0316 µM, first compound 0.316 µM
[4] = second compound 0.0316 µM, first compound 1 µM
[5] = second compound 0.0316 µM, first compound 3.16 µM
[6] = second compound 0.0316 µM, first compound 10 µM
[7] = second compound 0.1 µM, first compound 0.0316 µM
[8] = second compound 0.1 µM, first compound 0.1 µM
[9] = second compound 0.1 µM, first compound 0.316 µM
[10] = second compound 0.1 µM, first compound 1 µM
[11] = second compound 0.1 µM, first compound 3.16 µM
[12] = second compound 0.1 µM, first compound 10 µM
[13] = second compound 0.316 µM, first compound 0.0316 µM
[14] = second compound 0.316 µM, first compound 0.1 µM
[15] = second compound 0.316 µM, first compound 0.316 µM
[16] = second compound 0.316 µM, first compound 1 µM
[17] = second compound 0.316 µM, first compound 3.16 µM
[18] = second compound 0.316 µM, first compound 10 µM
[19] = second compound 1 µM, first compound 0.0316 µM
[20] = second compound 1 µM, first compound 0.1 µM
[21] = second compound 1 µM, first compound 0.316 µM
[22] = second compound 1 µM, first compound 1 µM
[23] = second compound 1 µM, first compound 3.16 µM
[24] = second compound 1 µM, first compound 10 µM
[25] = second compound 3.16 µM, first compound 0.0316 µM
[26] = second compound 3.16 µM, first compound 0.1 µM
[27] = second compound 3.16 µM, first compound 0.316 µM
[28] = second compound 3.16 µM, first compound 1 µM
[29] = second compound 3.16 µM, first compound 3.16 µM
[30] = second compound 3.16 µM, first compound 10 µM
[31] = second compound 10 µM, first compound 0.0316 µM
[32] = second compound 10 µM, first compound 0.1 µM
[33] = second compound 10 µM, first compound 0.316 µM
[34] = second compound 10 µM, first compound 1 µM
[35] = second compound 10 µM, first compound 3.16 µM
[36] = second compound 10 µM, first compound 10 µM
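Also: spheroids exposed to agents for seven days before reading.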
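For viability, T/C in this document: 100% = DMSO vehicle control viability.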

C=C(F)C(=O)N1CCN(c2nc(OCC3CCCN3C)nc3c2CCN(c2cccc4cccc(Cl)c24)C3)CC1CC#N (centres undefined) + CN1CCN(c2cc(C(=O)Nc3cc4cc(-c5cnn(C)c5)ccc4cn3)ccn2)CC1
IC50 (second compound 0.0316 µM): 5100 nM
IC50 (second compound 0.1 µM): 2300 nM
IC50 (second compound 0.316 µM): < 31.6 nM
IC50 (second compound 1 µM): < 31.6 nM
IC50 (second compound 3.16 µM): < 31.6 nM
IC50 (second compound 10 µM): < 31.6 nM
viability, T/C [1]: 71.2%
viability, T/C [2]: 89.9%
viability, T/C [3]: 91.9%
viability, T/C [4]: 87.9%
viability, T/C [5]: 82.2%
viability, T/C [6]: 4.47%
viability, T/C [7]: 61.6%
viability, T/C [8]: 54.7%
viability, T/C [9]: 53.9%
viability, T/C [10]: 50.8%
viability, T/C [11]: 49.1%
viability, T/C [12]: 3.1%
viability, T/C [13]: 25%
viability, T/C [14]: 24.5%
viability, T/C [15]: 31%
viability, T/C [16]: 22.8%
viability, T/C [17]: 18.4%
viability, T/C [18]: 1.05%
viability, T/C [19]: 1.86%
viability, T/C [20]: 2.01%
viability, T/C [21]: 2.61%
viability, T/C [22]: 1.74%
viability, T/C [23]: 1.47%
viability, T/C [24]: 0.1%
viability, T/C [25]: 0.87%
viability, T/C [26]: 1.12%
viability, T/C [27]: 0.66%
viability, T/C [28]: 0.73%
viability, T/C [29]: 0.71%
viability, T/C [30]: 0.13%
viability, T/C [31]: 0.3%
viability, T/C [32]: 0.27%
viability, T/C [33]: 0.3%
viability, T/C [34]: 0.31%
viability, T/C [35]: 0.44%
viability, T/C [36]: 0.22%

C=CC(=O)N1CCN(c2nc(=O)n(-c3c(C)ccnc3C(C)C)c3nc(-c4c(O)cccc4F)c(F)cc23)C(C)C1 (centres undefined) + CN1CCN(c2cc(C(=O)Nc3cc4cc(-c5cnn(C)c5)ccc4cn3)ccn2)CC1
IC50 (second compound 0.0316 µM): > 10000 nM
IC50 (second compound 0.1 µM): > 10000 nM
IC50 (second compound 0.316 µM): < 31.6 nM
IC50 (second compound 1 µM): < 31.6 nM
IC50 (second compound 3.16 µM): < 31.6 nM
IC50 (second compound 10 µM): < 31.6 nM
viability, T/C [1]: 93.4%
viability, T/C [2]: 71.5%
viability, T/C [3]: 67.1%
viability, T/C [4]: 90.5%
viability, T/C [5]: 111%
viability, T/C [6]: 95.4%
viability, T/C [7]: 62.3%
viability, T/C [8]: 59%
viability, T/C [9]: 58.7%
viability, T/C [10]: 64.9%
viability, T/C [11]: 66.7%
viability, T/C [12]: 57%
viability, T/C [13]: 25.8%
viability, T/C [14]: 22.5%
viability, T/C [15]: 27%
viability, T/C [16]: 30.8%
viability, T/C [17]: 31.1%
viability, T/C [18]: 22.9%
viability, T/C [19]: 1.96%
viability, T/C [20]: 2.92%
viability, T/C [21]: 1.65%
viability, T/C [22]: 3.19%
viability, T/C [23]: 2.93%
viability, T/C [24]: 2.27%
viability, T/C [25]: 1.06%
viability, T/C [26]: 1.37%
viability, T/C [27]: 1.15%
viability, T/C [28]: 0.96%
viability, T/C [29]: 1.76%
viability, T/C [30]: 1.78%
viability, T/C [31]: 0.21%
viability, T/C [32]: 0.25%
viability, T/C [33]: 0.24%
viability, T/C [34]: 0.29%
viability, T/C [35]: 0.41%
viability, T/C [36]: 0.29%
